Experiments:
PD-1/PD-L1 = PD-1/PD-L1 (Homo sapiens (Human), UniProt Q9NZQ7); experiment: NFAT assay: TCR Activitor/PD-L1 CHO cells co-cultured with PD-1/NFAT Reporter-Jurkat cells, Bright-Glo readout; type: cell-based; settings: PD-L1 CHO / PD-1 NFAT Reporter-Jurkat co-culture, 5 hours
Experimental: PD1:PD-L1 TR-FRET assay kit, purchased from BPS Biosciences. Bright-Glo reagents purchased from Promega. Nivo multimode microplate reader (PerkinElmer)
TCR Activitor/PD-L1 CHO cells with a growth confluence of 80% were seeded at 35,000 cells per well in a plate and then incubated overnight in a 37° C. cell culture incubator. The compound to be tested was 5-fold diluted with a pipette to the 8th concentration, i.e., from 100 μmol to 1.28 nmol, with a DMSO concentration of 100%. Experiments were set up in duplicate wells. 147 μL of culture medium was added to an intermediate plate, and then 3 μL of gradient diluted compound per well was transferred to the intermediate plate according to the corresponding position, resulting in compound concentrations ranging from 2 μmol to 0.0256 nmol with a DMSO concentration of 2%. The T cell receptor/PD-L1 CHO cell supernatant was discarded, and 50 μL of compound working solution was added to each well, followed by incubation at 37° C. for 30 minutes. After incubation, 50 μL of a PD-1/NFAT Reporter-Jurkat cell suspension at a density of 4×10^5/mL was added to each well, and the plate was incubated at 37° C. for 5 hours. After the incubation, 100 μL of Bright-Glo was added to each well. After mixing, chemiluminescence signals were read using a Nivo the multimode microplate reader.
Raw data was converted into inhibition rate using the equation: (Sample−Min)/(Max−Min)*100%. The IC50 value could then be derived by performing a curve fit using a four-parameter logistic model (obtained using the “log(inhibitor) vs. response—Variable slope” mode in GraphPad Prism). The degree of inhibition of the compound on PD-1/PD-L1 was calculated using the equation (Max−Min)/Min. The higher the multiple, the stronger the inhibition of the PD-1/PD-L1 pathway.

[1] = In vivo pharmacokinetics study in mice; design: species or system C57BL/6 mice; settings: male, C57BL/6, plasma, mouse
Experimental: Male C57BL/6 mice were used as test animals, and the drug concentration in plasma at different times after intragastric administration of the test compound was determined by LC/MS/MS method. The pharmacokinetic behavior of the test compounds in mice in vivo was studied to evaluate their pharmacokinetic characteristics.
Test animals: Healthy male C57BL/6 mice. Drug preparation: For the IV group, the vehicle was 5% DMSO+95% (20% hydroxypropyl-β-cyclodextrin); for the PO group, the vehicle was 5% DMSO+95% (20% HP-β-CD). Administration: The dosage of the test compound was 1 mg/kg for the IV group, and 10 mg/kg or 30 mg/kg for the PO group (note: the PO group was fasted overnight before administration).
Experimental operations: After administration, whole blood was collected for a certain period of time and prepared into plasma. The drug concentration was analyzed by the LC-MS/MS method, and the pharmacokinetic parameters were calculated using Phoenix WinNonlin software (Pharsight, USA)

MC38-hPD-L1 colon cancer = experiment: Drug efficacy in MC38-hPD-L1 colon cancer model of B-hPD-L1 humanized mice; type: in vivo; settings: compounds 20 to 50 mg/kg p.o. BID 21 days; atezolizumab 5 mg/kg i.p. TIW 10 times
Experimental: Mouse colon cancer MC38 cells were purchased from Shunran Shanghai Biotech Co., Ltd. Biocytogen (Beijing) Co. Ltd genetically modified the MC38 cells to express human PD-L1, and named it MC38-hPD-L1. These cells were adherent cells, cultured in a 37° C., 5% CO2 incubator. The culture medium composition was Dulbecco's Modified Eagle's Medium (DMEM) containing 10% inactivated fetal bovine serum.
MC38-hPD-L1 cells resuspended in PBS were inoculated subcutaneously into the right flank of B-hPD-L1 mice at a volume of 5×10^5 cells/0.1 mL per mouse. When the average tumor volume reached 150±50 mm^3, suitable mice were selected based on tumor volume and body weight, and were evenly distributed into each group, with 8 mice per group. Drug administration started on the day of grouping. The administration vehicle of the oral administration group was 5% DMSO+95% (20% HP-β-CD in water), while the administration vehicle of the intraperitoneal injection group was 0.9% sodium chloride injection.
Note: a. The administration volume was calculated based on the weight of the experimental animals at […]; b. The dose was 20 mg/kg within 5 days after grouping, and the dose was adjusted to 50 mg/kg starting from the 6th day; c. “p.o.” refers to oral administration, “i.p.” refers to intraperitoneal injection; d. “TIW” refers to three times a week, “BID” refers to twice a day.
Tumor growth inhibition (TGITV): TGITV (%)=[1−(Ti−T0)/(Vi−V0)][…]% (Ti: mean tumor volume of the treatment group on day i of administration, T0: mean tumor volume of the treatment group on day 0 of administration, Vi: mean tumor volume of the vehicle control group on day i of administration, V0: mean tumor volume of the vehicle control group on day 0 of administration).

Chain of PD-1/PD-L1 (Q9NZQ7 19-290): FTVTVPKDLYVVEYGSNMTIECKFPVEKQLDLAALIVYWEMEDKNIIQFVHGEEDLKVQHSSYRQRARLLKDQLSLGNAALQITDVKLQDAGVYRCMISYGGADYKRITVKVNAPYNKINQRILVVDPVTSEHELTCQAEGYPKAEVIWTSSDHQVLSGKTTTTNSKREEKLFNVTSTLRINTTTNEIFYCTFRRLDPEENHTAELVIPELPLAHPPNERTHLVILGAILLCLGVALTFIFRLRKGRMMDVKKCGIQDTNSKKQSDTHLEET

Compound	IC50 (PD-1/PD-L1)	further results
COc1nc(-c2cccc(-c3cccc4c3CCN4c3nccc4cc(CN5CC[C@@H](O)C5)cnc34)c2Cl)ccc1CNC[C@@H]1CCC(=O)N1 [Compound 1]	35 nM	AUC(0-inf) ([1]; po, p.o. 30 mg/kg): 18.8 µM·h; AUC(0-t) ([1]; po, p.o. 30 mg/kg): 13.7 µM·h; Cmax ([1]; po, p.o. 30 mg/kg): 1460 nM; half-life ([1]; po, p.o. 30 mg/kg): 12 h
COc1nc(-c2cccc(-c3cccc4c3CCN4c3nccc4cc(CN5CC[C@@H](O)C5)cnc34)c2Cl)cnc1CNC[C@@H]1CCC(=O)N1 [Compound 2]	16 nM	AUC(0-inf) ([1]; po, p.o. 30 mg/kg): 23 µM·h; AUC(0-t) ([1]; po, p.o. 30 mg/kg): 20.6 µM·h; Cmax ([1]; po, p.o. 30 mg/kg): 1960 nM; half-life ([1]; po, p.o. 30 mg/kg): 6.9 h
COc1nc(-c2cccc(-c3cccc4c3CCN4c3nc(C(F)F)nc4cc(CN5CC[C@@H](O)C5)cnc34)c2Cl)cnc1CN1CCC(C)(C(=O)O)C1 (stereo partly drawn) [Compound 11]	24.6 nM	
COc1nc(-c2cccc(-c3cccc4c3CCN4c3nc(C(F)F)nc4cc(CN5CC[C@@H](O)C5)cnc34)c2Cl)cnc1CNC[C@H](C(=O)O)C(C)C [Compound 13]	19 nM	
COc1nc(-c2cccc(-c3cccc4c3CCN4c3nc(C(F)F)nc4cc(CN5CC[C@@H](O)C5)cnc34)c2Cl)cnc1CN1CCC[C@H]1CC(=O)O [Compound 15]	35.1 nM	
COc1nc(-c2cccc(-c3cccc4c3CCN4c3nc(C(F)F)nc4cc(CN5CC[C@@H](O)C5)cnc34)c2C)cnc1CN1CC[C@@H](C(=O)O)C1 [Compound 19]	30.7 nM	
COc1nc(-c2cccc(-c3cccc4c3CCN4c3nc(C(F)F)nc4cc(CN5CC[C@@H](O)C5)cnc34)c2C)cnc1CN1CCC(C)(C(=O)O)C1 (stereo partly drawn) [Compound 20]	42.7 nM	
COc1nc(-c2cccc(-c3cccc4c3CCN4c3nc(C(F)F)nc4cc(CN5C[C@@H](O)[C@H](O)C5)cnc34)c2Cl)cnc1CNC[C@@H]1COC(=O)N1 [Compound 22]	22.6 nM	
COc1nc(-c2cccc(-c3cccc4c3CCN4c3nc(C(F)F)nc4cc(CN5CC[C@@H](O)C5)cnc34)c2C)ccc1CN1CC[C@@](C)(C(=O)O)C1 [Compound 23]	32.6 nM	
COc1nc(-c2cccc(-c3cccc4c3CCN4c3nc(C(F)F)nc4cc(CN5CC[C@@H](O)C5)cnc34)c2C)ccc1CN1CC[C@](C)(C(=O)O)C1 [Compound 24]	32.6 nM	
Cc1c(-c2nc3cc(CN4CC[C@@](C)(C(=O)O)C4)cnc3o2)cccc1-c1cccc2c1CCN2c1nc(C(F)F)nc2cc(CN3CC[C@@H](O)C3)cnc12 [Compound 30]	14.5 nM	
Atezolizumab: PD-L1 monoclonal antibody, approved for urothelial carcinoma and non-small cell lung cancer [reference compound]		Tumor growth inhibition TGITV (%) (MC38-hPD-L1 colon cancer): 88.4%

The remaining compounds from weak to strong by IC50 (PD-1/PD-L1), led by results:

IC50 (PD-1/PD-L1)	Compound	further results
13.6 nM	Cc1c(-c2nc3cc(CN4CC[C@@](C)(O)C4)cc(C#N)c3o2)cccc1-c1cccc2c1CCN2c1nc(C(F)F)nc2cc(CN3CC[C@@H](C(=O)O)C3)cnc12 [Compound 33]	
10.9 nM	COc1nc(-c2cccc(-c3cccc4c3CCN4c3nc(C(F)F)nc4cc(CN5CC[C@@H](O)C5)cnc34)c2Cl)cnc1CN1CC[C@@H](O)C1 [Compound 12]	
10.7 nM	COc1nc(-c2cccc(-c3cccc4c3CCN4c3nc(C(F)F)nc4cc(CN5CC[C@@H](O)C5)cnc34)c2Cl)cnc1CNCC(C)(C)C(=O)O [Compound 14]	
9.2 nM	COc1nc(-c2cccc(-c3cccc4c3CCN4c3nc(C(F)F)nc4cc(CN5CC[C@@H](O)C5)cnc34)c2Cl)ccc1CN1CCC(C)(C(=O)O)C1 (stereo partly drawn) [Compound 16]	
8.98 nM	Cc1c(-c2nc3cc(CN4CC[C@@H](O)C4)cc(C#N)c3o2)cccc1-c1cccc2c1CCN2c1nc(C(F)F)nc2cc(CN3CC[C@@H](C(=O)O)C3)cnc12 [Compound 32]	
7.5 nM	N#CCOc1nc(-c2cccc(-c3cccc4c3CCN4c3nc(C(F)F)nc4cc(CN5CC[C@@H](O)C5)cnc34)c2Cl)ccc1CN1CC[C@@H](C(=O)O)C1 [Compound 17]	
6.71 nM	Cc1c(-c2nc3cc(CN4CC[C@@H](C(=O)O)C4)cc(C#N)c3o2)cccc1-c1cccc2c1CCN2c1nc(C(F)F)nc2cc(CN3CC[C@@H](O)C3)cnc12 [Compound 27]	Tumor growth inhibition TGITV (%) (MC38-hPD-L1 colon cancer): 86.1%; AUC(0-inf) ([1]; iv, i.v. 1 mg/kg): 2.1 µM·h; AUC(0-t) ([1]; iv, i.v. 1 mg/kg): 1.65 µM·h; clearance ([1]; iv, i.v. 1 mg/kg): 10.6 mL/min/kg; half-life ([1]; iv, i.v. 1 mg/kg): 12.5 h; Vd ([1]; iv, i.v. 1 mg/kg, read-out: Vdss): 8.97 L/kg; bioavailability ([1]; oral, p.o. 10 mg/kg vs i.v. 1 mg/kg): 46.3%; AUC(0-inf) ([1]; po, p.o. 10 mg/kg): 9.73 µM·h; AUC(0-t) ([1]; po, p.o. 10 mg/kg): 8.91 µM·h; Cmax ([1]; po, p.o. 10 mg/kg): 680 nM; Tmax ([1]; po, p.o. 10 mg/kg): 3.33 h; half-life ([1]; po, p.o. 10 mg/kg): 6.23 h
6.03 nM	Cc1c(-c2nc3cc(CN4CC[C@@H](C(=O)O)C4)cnc3o2)cccc1-c1cccc2c1CCN2c1nc(C(F)F)nc2cc(CN3CC[C@@H](O)C3)cnc12 [Compound 29]	
4.7 nM	COc1nc(-c2cccc(-c3cccc4c3CCN4c3nc(C(F)F)nc4cc(CN5CC[C@@H](O)C5)cnc34)c2Cl)ccc1CNC[C@@H]1CCC(=O)N1 [Compound 3]	
4.67 nM	N#Cc1cc(CN2CC[C@@H](C(=O)O)C2)cc2nc(-c3cccc(-c4cccc5c4CCN5c4nc(C(F)F)nc5cc(CN6CC[C@@H](O)C6)cnc45)c3Cl)oc12 [Compound 28]	
4.5 nM	COc1nc(-c2cccc(-c3cccc4c3CCN4c3nc(C(F)F)nc4cc(CN5CC[C@@H](O)C5)cnc34)c2Cl)cnc1CNC[C@@H]1CCC(=O)N1 [Compound 4]	Tumor growth inhibition TGITV (%) (MC38-hPD-L1 colon cancer): 86.1%
4.4 nM	COc1nc(-c2cccc(-c3cccc4c3CCN4c3nc(C(F)F)nc4cc(CN5CC[C@@H](C(=O)O)C5)cnc34)c2Cl)ccc1CNC[C@@H]1CCC(=O)N1 [Compound 9]	
3.9 nM	N#CCOc1nc(-c2cccc(-c3cccc4c3CCN4c3nc(C(F)F)nc4cc(CN5CC[C@@H](C(=O)O)C5)cnc34)c2Cl)ccc1CNC[C@@H]1CCC(=O)N1 [Compound 8]	
3.5 nM	COc1nc(-c2cccc(-c3cccc4c3CCN4c3nc(C(F)F)nc4cc(CN5CCC(C)(O)C5)cnc34)c2Cl)cnc1CNC[C@@H]1CCC(=O)N1 (stereo partly drawn) [Compound 18]	
3 nM	N#CCOc1nc(-c2cccc(-c3cccc4c3CCN4c3nc(C(F)F)nc4cc(CN5CC[C@@H](O)C5)cnc34)c2Cl)ccc1CNC[C@@H]1CCC(=O)N1 [Compound 7]	

Source: patent US20240132491A1, “INDOLINE COMPOUND” (MEDSHINE DISCOVERY INC., priority 2021, published 2024)
